Reference: patent publication US6828327B2, “Macroheterocylic compounds useful as kinase inhibitors” (Ortho-McNeil Pharmaceutical, Inc., priority 2000, dated 2004)

Tests used:
[1] = test system: L6 muscle cells; test: Cell-Based GSK 3-β Assay (glycogen content of L6 muscle cells); conditions: for 14C-Glucose Incorporation (dpm): L6 cells, 2 hours, 0.0 μM control Cpd 1 1640, Cpd 2 2078; for glycogen synthesis in L6 skeletal muscle cells: upon exposure to compound, result in words
Procedure: Glycogen content of L6 muscle cells was measured according to the method described in Berger and Hayes, Anal. Biochem., 1998, 261, 159-163.
Briefly, L6 cells were serum starved overnight in alpha-MEM containing 0.1%. On the following day, cells were washed three times with 300 μL KRPH buffer (150 mM NaCl, 5 mM KCl, 2.9 mM Na2HPO4, 1.25 mM MgSO4, 1.2 mM CaCl2, 10 mM HEPES, pH 7.4) and labeled with 200 μL alpha-MEM containing 5.5 mM ^14C-Glucose (0.1 μCi) in the presence of vehicle (DMSO) or compounds. After 2 hours, cells were washed three times with ice-cold PBS and glycogen was precipitated for 2 hours using ice-cold 66% EtOH. Precipitated glycogen was then washed three times with ice-cold 66% EtOH and ^14C-glycogen was quantified using a TopCount (Packard).
Compounds were tested in separate experiments at the dose levels shown. Where shown, the 0.0 μM dose was used as a control.

[2] = target: T1, PKC α (Homo sapiens, UniProt P17252); test: Biotinylated Peptide Substrate Assay, PKC α; format: biochemical; conditions: 10 μM ATP; >10 = no 50% inhibition at highest dose tested
Procedure: Biotinylated peptide substrates were selected from the literature as appropriate for the enzyme being evaluated.
Assay conditions vary slightly for each protein kinase, for example, insulin receptor kinase requires 10 mM MnCl2 for activity and Calmodulin-dependent protein kinase requires calmodulin and 10 mM CaCl2. […] Enzyme was diluted in 50 mM Tris-HCl pH=8.0, 0.1% BSA and added to each well. The reaction was incubated for one hour at 30° C. in the presence of compound. After one hour the reaction mix was aspirated from the plate and the plate was washed with PBS containing 100 mM EDTA. The plate was read on a scintillation counter to determine ^33P-γ-ATP incorporated into the immobilized peptide. […] A maximum and minimum signal for the assay was determined on each plate.

[3] = target: T1, PKC α; test: Protein Kinase C Scintillation Proximity Assay (SPA), PKC-α; format: biochemical; design: purchased PanVera, Madison Wis; host or cells: baculovirus expression vector; conditions: inhibition value, recombinant human isozyme, 1 μM ATP
Procedure: The binding activity of a compound for Protein Kinase C (PKC) was assessed using a homogeneous Scintillation Proximity Assay according to the procedure below.
The reaction was incubated for 15 min at 30° C. Reactions were terminated by the addition of streptavidin-coated SPA beads (Amersham) in a solution containing 1 mM EGTA, 10 mM EDTA and 100 μM ATP. Beads were allowed to settle overnight and the plates read in a Wallac MICROBETA scintillation counter (PerkinElmer Life sciences, Wellesley, Mass.).

Row | Compound | 14C-Glucose Incorporation (dpm) ([1]; dose 1 μM) | 14C-Glucose Incorporation (dpm) ([1]; dose 3 μM) | 14C-Glucose Incorporation (dpm) ([1]; dose 10 μM) | glycogen synthesis in L6 skeletal muscle cells [1] | PKC α Kinase Assay (IC50 uM) [2] [µM] | IC50 [3] [µM]
1 | O=C1NC(=O)C2=C1c1cn(c3ncccc13)CCOCCOCCOCCn1cc2c2cccnc21 [Cpd 1] | 1898 | 1958 | 2426 | increased glycogen synthesis | – | –
2 | O=C1NC(=O)C2=C1c1cn(c3ccccc13)CCOCCOCCOCCn1cc2c2cccnc21 [Cpd 11] | – | – | – | – | >10 | 1.21
3 | O=C1NC(=O)C2=C1c1cn(c3ncccc13)CCOCCOCCOCCOCCn1cc2c2cccnc21 [Cpd 2] | 2224 | 2518 | 2806 | increased glycogen synthesis | – | –
4 | O=C1NC(=O)C2=C1c1cn(c3ccccc13)CCOCCOCCn1cc2c2cccnc21 [Cpd 10] | – | – | – | – | >10 | 5.36
